Among the data in EP4768487A1, “FUSED LACTAM RING COMPOUND AND USE THEREOF” (Chengdu Zenitar Biomedical Technology Co., Ltd., priority 2023, dated 2025) are IC50 values, retold here.

The target of test [1] is T1, PARP-5A (Homo sapiens, UniProt O95271).
T1 sequence (O95271 1-1327): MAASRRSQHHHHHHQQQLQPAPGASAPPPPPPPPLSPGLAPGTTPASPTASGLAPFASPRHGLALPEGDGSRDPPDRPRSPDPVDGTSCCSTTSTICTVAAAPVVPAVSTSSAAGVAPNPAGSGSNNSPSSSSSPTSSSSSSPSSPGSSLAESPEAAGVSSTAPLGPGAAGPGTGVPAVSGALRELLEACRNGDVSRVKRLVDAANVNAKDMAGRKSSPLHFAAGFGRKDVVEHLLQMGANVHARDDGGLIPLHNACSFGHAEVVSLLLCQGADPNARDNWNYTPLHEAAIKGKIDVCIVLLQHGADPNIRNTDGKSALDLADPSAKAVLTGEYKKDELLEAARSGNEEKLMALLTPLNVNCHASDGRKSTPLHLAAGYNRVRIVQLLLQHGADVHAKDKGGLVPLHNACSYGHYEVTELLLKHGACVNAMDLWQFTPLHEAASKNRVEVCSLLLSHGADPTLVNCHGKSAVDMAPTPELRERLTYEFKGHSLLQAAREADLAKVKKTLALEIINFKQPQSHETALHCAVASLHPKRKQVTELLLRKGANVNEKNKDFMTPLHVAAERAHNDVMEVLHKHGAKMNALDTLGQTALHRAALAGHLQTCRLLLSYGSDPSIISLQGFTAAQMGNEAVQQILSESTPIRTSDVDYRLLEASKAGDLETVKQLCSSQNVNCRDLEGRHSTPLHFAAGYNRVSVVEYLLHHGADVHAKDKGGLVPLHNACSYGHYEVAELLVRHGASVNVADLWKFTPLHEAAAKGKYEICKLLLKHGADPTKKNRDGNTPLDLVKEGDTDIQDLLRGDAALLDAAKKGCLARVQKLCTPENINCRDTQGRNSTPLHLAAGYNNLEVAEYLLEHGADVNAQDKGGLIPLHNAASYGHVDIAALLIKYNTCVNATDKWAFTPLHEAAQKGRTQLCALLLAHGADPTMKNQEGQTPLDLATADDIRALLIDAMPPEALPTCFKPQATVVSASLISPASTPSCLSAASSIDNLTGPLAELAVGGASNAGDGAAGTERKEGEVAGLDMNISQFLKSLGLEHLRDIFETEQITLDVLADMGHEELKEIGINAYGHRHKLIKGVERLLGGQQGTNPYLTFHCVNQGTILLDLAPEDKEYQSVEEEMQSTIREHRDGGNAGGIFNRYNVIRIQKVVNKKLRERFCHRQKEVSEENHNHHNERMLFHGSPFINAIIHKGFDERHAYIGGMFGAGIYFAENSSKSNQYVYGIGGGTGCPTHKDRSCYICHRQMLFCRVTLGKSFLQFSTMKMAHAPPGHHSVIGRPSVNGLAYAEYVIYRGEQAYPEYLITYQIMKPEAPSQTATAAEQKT
The test can be described thus: biochemical.

In test [2] the target is T2, PARP-7 (Homo sapiens, UniProt Q7Z3E1).
T2 sequence (Q7Z3E1 1-657): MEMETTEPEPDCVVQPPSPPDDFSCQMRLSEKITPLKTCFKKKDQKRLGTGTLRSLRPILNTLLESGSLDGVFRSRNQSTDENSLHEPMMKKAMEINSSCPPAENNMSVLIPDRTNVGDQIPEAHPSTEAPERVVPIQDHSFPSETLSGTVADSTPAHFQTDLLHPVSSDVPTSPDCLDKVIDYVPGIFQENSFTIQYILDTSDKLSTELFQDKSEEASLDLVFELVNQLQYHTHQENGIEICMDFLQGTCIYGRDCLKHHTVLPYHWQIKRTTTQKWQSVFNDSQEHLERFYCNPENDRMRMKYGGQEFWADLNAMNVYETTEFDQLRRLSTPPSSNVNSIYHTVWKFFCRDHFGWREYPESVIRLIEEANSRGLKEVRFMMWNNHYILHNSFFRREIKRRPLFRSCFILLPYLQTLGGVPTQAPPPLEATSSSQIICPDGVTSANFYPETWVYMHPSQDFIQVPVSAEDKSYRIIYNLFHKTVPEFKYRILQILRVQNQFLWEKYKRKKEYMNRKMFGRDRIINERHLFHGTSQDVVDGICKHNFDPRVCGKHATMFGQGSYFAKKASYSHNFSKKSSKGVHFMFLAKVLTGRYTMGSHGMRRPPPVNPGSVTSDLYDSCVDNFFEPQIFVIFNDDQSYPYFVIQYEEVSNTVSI
Put plainly: Assay for enzymatic selectivity for PARP family: PARP-7.

Test [3] addresses T3, PARP-12 (Homo sapiens, UniProt Q9H0J9).
T3 sequence (Q9H0J9 1-701): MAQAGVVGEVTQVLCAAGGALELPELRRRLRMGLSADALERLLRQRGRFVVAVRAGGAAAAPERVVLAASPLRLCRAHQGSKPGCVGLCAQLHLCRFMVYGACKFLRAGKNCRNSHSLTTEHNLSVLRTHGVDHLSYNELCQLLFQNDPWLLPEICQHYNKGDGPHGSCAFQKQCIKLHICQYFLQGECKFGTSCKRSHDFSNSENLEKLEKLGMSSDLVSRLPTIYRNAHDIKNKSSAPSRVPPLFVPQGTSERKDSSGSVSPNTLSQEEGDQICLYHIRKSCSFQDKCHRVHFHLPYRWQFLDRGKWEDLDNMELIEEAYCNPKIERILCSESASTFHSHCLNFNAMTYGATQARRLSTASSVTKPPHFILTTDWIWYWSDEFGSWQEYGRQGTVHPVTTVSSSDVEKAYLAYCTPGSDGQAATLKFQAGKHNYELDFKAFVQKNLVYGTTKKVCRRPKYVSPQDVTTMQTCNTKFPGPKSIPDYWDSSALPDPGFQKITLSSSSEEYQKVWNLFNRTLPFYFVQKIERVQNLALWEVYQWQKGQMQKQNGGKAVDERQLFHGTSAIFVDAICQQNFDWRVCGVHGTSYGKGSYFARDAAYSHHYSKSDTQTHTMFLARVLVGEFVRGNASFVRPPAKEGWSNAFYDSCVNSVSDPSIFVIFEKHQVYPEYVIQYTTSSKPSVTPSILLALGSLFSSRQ
The test can be described thus: Assay for enzymatic selectivity for PARP family: PARP-12.

The test system of test [4] is BRCA-mutated MDA-MB-436 cells. The test can be described thus: Anti-proliferative activity against cells (CCK8): MDA-MB-436. Type of test: cell-based. The note with it: Homo sapiens, 72 h + 96 h culture.

By IC50 is commonly meant the point on the concentration scale where inhibition reaches its midpoint. On to `CNC(=O)c1ccc(N2CCN(C[C@H]3CCc4nc(C)c(=O)[nH]c4C3)CC2)c(F)n1` [Example 45, (S)-6-Fluoro-N-methyl-5-(4-((2-methyl-3-oxo-3,4,5,6,7,8-hexahydroquinoxaline-6-yl)methyl)piperazin-1-yl)picolinamide], for which the figures for the IC50 in test [1], in test [2] and in test [3] were 1930 nM, 5.99 µM and 862 nM, respectively.
As to `CCc1cc2c([nH]c1=O)CC(CN1CCN(c3ccc(C(=O)NC)nc3F)CC1)OC2` (centres unmarked) [Compound 2, 5-(4-((3-Ethyl-2-oxo-1,5,7,8-tetrahydro-2H-pyrano[4,3-b]pyridin-7-yl)methyl)piperazin-1-yl)-6-fluoro-N-methyl picolinamide], the IC50 was 0.25 nM in test [4], 975 nM in test [1], > 10 µM in test [2] and 1990 nM in test [3].
Regarding `CNC(=O)c1ccc(N2CCN(CC3Cc4[nH]c(=O)c(C)cc4CO3)CC2)c(Cl)n1` (centres unmarked) [Example 74, 6-Chloro-N-methyl-5-(4-((3-methyl-2-oxo-1,5,7,8-tetrahydro-2H-pyrano[4,3-b]pyridin-7-yl)methyl)piperazin-1-yl)picolinamide], the IC50 in test [4] is 7 nM.
